Data: the supplement of paper PMC10307832

How the values were obtained:
Assay in all cases: relative viability (nuclei count vs DMSO), 5 days (fraction); higher = more cells survive
[1] = compound: CC[C@@H](C)CNCC(=O)N1CCC2=C([C@@H]1COC3=CC=CC(=C3)C)C=CS2 [RU-SKI 43] + C[C@]1(O)C[C@@H](c2nc(-c3ccc4ccc(-c5ccccc5)nc4c3)c3c(N)nccn32)C1 [Linsitinib] (partner 1 µM)
How it was run: (§1)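 A single step with final 0.05% Triton X-100, 1% formaldehyde and 1 ug/ml Hoechst fixed the cells and stained nuclei 5 days after treatment. Lung cancer cell lines in 1536-well plates had been treated by pin tool the day after seeding with one drug alone or a fixed anchor-drug dose plus five library-drug doses (not always all listed) in √10 steps, and nuclei were counted on 4× images. Relative viability is the ratio of nuclei in treated wells to nuclei in vehicle wells, taken as the median of duplicate plates.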

[2] = compound: CCc1c2c(nc3ccc(OC(=O)N4CCC(N5CCCCC5)CC4)cc13)-c1cc3c(c(=O)n1C2)COC(=O)[C@]3(O)CC [Irinotecan] + CC1(C)CCC(c2ccc(Cl)cc2)=C(CN2CCN(c3ccc(C(=O)NS(=O)(=O)c4ccc(N[C@H](CCN5CCOCC5)CSc5ccccc5)c(S(=O)(=O)C(F)(F)F)c4)cc3)CC2)C1 [Navitoclax] (partner 0.5 µM)
How it was run: as §1

[3] = compound: Cn1cc(-c2cnc3ccc4ccc(CS(=O)(=O)NCc5ccccn5)cc4c(=O)c3c2)cn1 [MK-8033] + COc1cc2c(Oc3ccc(NC(=O)C4(C(=O)Nc5ccc(F)cc5)CC4)cc3F)ccnc2cc1OCCCN1CCOCC1 [Foretinib] (partner 0.25 µM)
How it was run: as §1

[4] = compound: Cn1cc(-c2cnc3ccc4ccc(CS(=O)(=O)NCc5ccccn5)cc4c(=O)c3c2)cn1 [MK-8033] + Cc1nc(NC(=O)N2CCC[C@H]2C(N)=O)sc1-c1ccnc(C(C)(C)C(F)(F)F)c1 [Alpelisib] (partner 2 µM)
How it was run: as §1

Cell Line	relative viability ([1]; first compound 0.1 µM)	relative viability ([1]; first compound 0.3162 µM)	relative viability ([1]; first compound 1 µM)	relative viability ([1]; first compound 3.162 µM)	relative viability ([1]; first compound 10 µM)	relative viability ([2]; first compound 2 µM)	relative viability ([2]; first compound 6.325 µM)	relative viability ([2]; first compound 20 µM)	relative viability ([3]; first compound 0.02 µM)	relative viability ([3]; first compound 0.06325 µM)	relative viability ([3]; first compound 0.2 µM)	relative viability ([3]; first compound 0.6325 µM)	relative viability ([3]; first compound 2 µM)	relative viability ([4]; first compound 0.02 µM)	relative viability ([4]; first compound 0.06325 µM)	relative viability ([4]; first compound 0.2 µM)	relative viability ([4]; first compound 0.6325 µM)	relative viability ([4]; first compound 2 µM)	relative viability ([2]; first compound 0.6325 µM)
NCI-H2126	0.683	0.698	0.717	0.762	0.702	0.421	0.319	0.308	1.13	0.998	1.16	1.18	1.15	0.749	0.731	0.763	0.772	0.702	–
EPLC-272H	1.35	1.37	1.41	–	1.07	0.17	0.144	0.209	0.608	0.537	0.61	0.605	0.507	0.91	–	0.877	0.948	1.02	0.658
NCI-H1793	0.98	0.959	0.988	0.928	0.809	0.447	0.347	0.664	0.696	0.515	0.615	0.574	0.784	0.608	–	0.54	0.603	0.816	–
NCI-H2009	1.2	1.23	1.24	1.21	1.16	0.58	0.19	0.148	1.25	1.25	1.19	1.24	1.14	1.13	1.12	1.09	1.11	1.14	0.802
NCI-H2347	1	1.19	1.07	0.94	1.01	0.477	0.348	0.277	1.21	1.01	0.805	0.839	0.939	1.05	0.991	1.02	1.03	0.975	0.648
LU99A	0.484	0.596	0.58	0.597	0.505	0.231	0.195	0.242	0.903	0.716	0.834	0.841	0.743	0.629	0.489	0.523	0.464	0.412	0.188
NCI-H1915	1.11	1.18	1.23	1.11	1.11	0.18	0.151	0.115	1.08	0.997	1.05	1.07	1.11	1.02	1	1.04	1.11	1.02	0.318
H3255	0.913	0.926	0.943	1.09	0.891	0.279	0.158	0.227	0.848	0.619	0.831	0.596	0.757	0.643	0.571	0.562	0.695	0.608	0.352
BEN	1.02	1.2	1.15	0.965	0.922	0.0844	0.0937	0.248	0.642	0.541	0.527	0.606	0.646	0.914	0.89	1	1.08	1	0.0453
NCI-H23	0.646	0.541	0.652	0.724	0.572	0.505	0.26	0.22	0.826	0.932	0.961	1.02	0.942	0.737	0.639	0.679	0.668	0.633	0.782
NCI-H1944	1.24	1.2	1.34	1.24	1.15	0.26	0.195	0.205	0.88	0.773	0.852	0.962	0.927	0.82	–	0.747	0.849	0.873	0.653
NCI-H441	0.538	0.462	0.654	0.533	0.473	0.383	0.304	0.463	0.842	1.02	0.967	0.968	0.896	0.853	0.643	0.648	0.709	0.67	0.206
NCI-H1437	1.13	1.26	1.15	1.04	0.91	0.575	0.308	0.214	1.21	1.3	1.19	1.23	1.19	0.966	0.905	0.883	0.941	0.956	0.75
NCI-H1703	0.653	1.02	0.545	0.636	0.503	1.45	0.514	0.105	0.316	0.393	0.351	0.32	0.337	0.407	0.273	0.354	0.266	0.309	1.16
HARA	1.03	1.02	1.09	1.05	0.851	0.106	0.123	0.111	0.772	0.781	0.884	0.548	0.997	0.777	0.742	0.76	0.743	0.871	0.658
LOU-NH91	0.94	0.932	0.945	0.872	0.944	0.526	0.32	0.275	0.94	0.583	0.906	0.878	0.9	0.727	–	0.69	0.702	0.699	0.578
COR-L 105	0.955	1.08	1.02	1.08	0.945	0.766	0.529	0.463	1.35	0.976	0.992	1.05	0.907	0.822	1.07	0.962	0.928	0.733	0.721
